Test results reported in ChEMBL document CHEMBL2021779, “Inhibition of hepatitis C virus NS5A by fluoro-olefin based γ-turn mimetics” (Bioorg Med Chem Lett, 2012).
pEC50: −log10 of the molar value.

What was measured:
Hepatitis C virus [1] = test: Antiviral activity against Hepatitis C virus genotype 1B by whole cell replicon assay; assay type: functional, organism-based, Hepacivirus hominis
Hepatitis C virus [2] = test: Antiviral activity against Hepatitis C virus genotype 2A by whole cell replicon assay; assay type: functional, organism-based, Hepacivirus hominis
[3] = tested on: Hepatitis C virus subtype 1a; test: Antiviral activity against Hepatitis C virus genotype 1A by whole cell replicon assay

pEC50 (Hepatitis C virus [1]) | pEC50 (Hepatitis C virus [2]) | pEC50 [3] | Compound
7.56 | 6.40 | 6.18 | COC(=O)N[C@H](/C(F)=C(\C)[C@@H](C)c1ncc(-c2ccc(-c3ccc(-c4cnc([C@H](C)/C(C)=C(\F)[C@@H](NC(=O)OC)C(C)C)[nH]4)cc3)cc2)[nH]1)C(C)C
10.10 | 6.78 | 6.72 | COC(=O)N[C@H](/C(F)=C1\CCC[C@H]1c1ncc(-c2ccc(-c3ccc(-c4cnc([C@@H]5CCC/C5=C(/F)[C@@H](NC(=O)OC)C(C)C)[nH]4)cc3)cc2)[nH]1)C(C)C

Compound | pEC50 (Hepatitis C virus [1]) | pEC50 (Hepatitis C virus [2]) | pEC50 [3]
COC(=O)N[C@H](C(=O)N1CCC[C@H]1c1ncc(-c2ccc(-c3ccc(-c4cnc([C@@H]5CCCN5C(=O)[C@@H](NC(=O)OC)C(C)C)[nH]4)cc3)cc2)[nH]1)C(C)C | […] | 10.20 | –
